Key:
[1] = as described by Bodineau et al. in Hypertension 2008 51, 1318-1325; cited from earlier work
[2] = Thermal stability of the product of each step (Table 1); type: physicochemical; conditions: product of step (e) of the preferred method; cell text split over r17-r19: No decomposition observed
Source text: Table 1 provides the reaction enthalpies, the purities (determined by HPLC and expressed as molar percentages) and the stabilities of the products of each step for this preferred method.

[3] = Stability of solid forms (neat, hydrates) under ambient conditions; type: physicochemical; conditions: ambient conditions: 15-25° C., atmospheric pressure, relative humidity above 50%; hydrate mixtures evolve to the trihydrate within a few days
Description: Any mixture of hydrates of compound I will evolve within a few days towards the trihydrate form in ambient conditions. Ambient conditions as used herein refer to a temperature between 15° C. and 25° C., at atmospheric pressure, and a relative humidity rate above 50%.

melting point [°C]	Stability: decomposition [2]	Relative stability of solid form [3]	SMILES	Anti-hypertensor efficacy [1]
78	No	–	N[C@@H](CCS(=O)(=O)O)CSSC[C@@H](N)CCS(=O)(=O)O [Compound I, (3S,3S′) 4,4′-disulfanediylbis(3-aminobutane 1-sulfonic acid)]	efficient anti-hypertensor agent
–	–	most stable form	N[C@@H](CCS(=O)(=O)O)CSSC[C@@H](N)CCS(=O)(=O)O.O.O.O [compound I, (3H2O)]	–

Source: patent US9340497B2, “Method for the preparation of (3S,3S′) 4,4′-disulfanediylbis (3-aminobutane 1-sulfonic acid)” (QUANTUM GENOMICS, priority 2010, dated 2016)
